Laboratory results: patent US20220313697A1, “NEK6 Inhibition to Treat ALS and FTD” (VIB VZW, priority 2021, published 2022)
Ends that are not written are not given here.

Experiments:
poly(PR) zebrafish model = poly(PR) zebrafish model of motor axonopathy; assay type: in vivo
Procedure: Therefore, a morpholino-mediated NEK6 knockdown was performed in a poly(PR) zebrafish model as described in Swinnen et al (2018 Acta Neuropathol doi:10.1007/s00401-017-1796-5). In this model, micro-injection of poly(PR) encoding mRNA results in a motor axonopathy in zebrafish embryos, characterised by reduced axonal lengths and aberrant axonal branching (Swinnen et al 2018 Acta Neuropathol doi:10.1007/s00401-017-1796-5).
Zebrafish work was performed as previously described in Swinnen et al (2018 Acta Neuropathol 135, 427-443). Zebrafish oocytes were injected at one-cell stage with the indicated amounts of the morpholinos. The splice-blocking morpholino against Danio rerio nek6 (transcript ENSDART00000132599.2; morpholino sequence 5′-[…]-3′) and the standard control oligo (morpholino sequence 5′-[…]-3′) were designed and generated by Gene Tools (Philomath, USA). Injected oocytes were incubated at 28° C. After 24 hpf, the embryos were dechorionated by using a forceps. Only morphologically normal embryos were selected for downstream experiments. At 30 hpf, the selected fish were deyolked and subsequently fixed overnight at 4° C. in 4% formaldehyde in lx PBS. Fish were permeabilized with acetone for 1 h at −20° C., blocked with 1% BSA/1% DMSO/PBS for 1 h at room temperature and immune-stained with mouse anti-SV2 primary antibody followed by secondary antibody. For phenotyping, 15 consecutive embryos per condition were analyzed with imaging (Leica DM 3000 LED microscope; DMK 33UX250 USB3.0 monochrome industrial camera, The Imaging Source, Bremen, Germany) and the Lucia software (version 4.60, Laboratory Imaging, Prague, Czech Republic) by a blinded observer. For the axonal length, a standardized method was used; five predefined and consecutive motor axons (i.e. the 8th up to the 12th axon on one side) were measured in all 15 embryos. Data for axonal length were normalized to the control condition. For the abnormal branching, a predefined set of 20 consecutive motor axons (i.e. the 8th up to the 17th axon on both sides) in the same 15 embryos were analyzed visually. […]

[1] = test system: hiPSC-derived cortical neurons treated with PR20; assay: Axonal transport analysis (mitochondrial transport, MitoTracker-Red) in PR20-treated neurons; assay type: cell-based, human; conditions: for axonal transport defects observed upon PR-treatment: 200 nm I-3 or 300 nm I-18, added 3 days before and together with PR20; for number of moving mitochondria / ratio of moving mitochondria to total amount of mitochondria: 200 nm I-3 or 300 nm I-18, vs PR-treatment alone
Procedure: Axonal transport defects are an early event in the pathogenesis of ALS (Guo et al 2019 Semin Cell Dev Biol 99:133-150). To assess whether axonal transport defects also occur in cortical neurons from healthy donor hiPSC-cortical neurons treated with PR20 and from C9orf72 patient-derived cortical neurons, mitochondrial transport studies were performed.
To test whether chemical inhibition of NEK6 could be used as a treatment of DPR toxicity as well, the recently described NEK6 inhibitor ZINC05007751 was tested. iCas9-hiPSC derived cortical neurons (cultured for 70-80 days) were treated with 1.75 μM to 14 μM of the inhibitor at dayl and at day 3. The cells were subjected to a PR20 treatment (1.5 μM) at day 3 together with the compound. Axonal transport measurements were performed at day 4.
The same experiments are performed with the NEK6 inhibitors ZINC05007751 and with the NEK6 inhibitors described in WO2019126696A1.
DIV79-DIV84 iPSC-derived cortical neurons were loaded with MitoTracker-Red (50 nM, Invitrogen), washed and left to equilibrate (20 min) in NMM, before transferring them to a HEPES buffered salt solution (pH 7.4, 150 mM NaCl, 5 mM KCl, 1 mM MgCl2, 2 mM CaCl2, 10 mM glucose, 10 mM HEPES). Measurements were performed on an inverted Zeiss Axiovert 200M microscope (Carl Zeiss) with a 40× water immersion lens. Neurons were selected under differential interference optics (DIC) based on typical morphology consisting of a soma and long-extended neurites. MitoTracker-RED was excited at 580 nm, using a TILL Poly V light source (TILL Photonics) and image sequences were recorded (200 images at 1 Hz) onto a cooled CCD camera (PCO Sensicam-QE) using TillVisION (TILL Photonics) software. A heated gravityfed perfusion system was used to keep cells at 36±0.5° C. during the recordings. All image analysis was performed in Igor Pro (Wavemetrics) using custom written routines based on a previously described analysis algorithm (Vanden Berghe 2004 Am. J. Physiol. Gastrointest. Liver Physiol. 286, G671-G682). In brief, kymographs or spatio-temporal maps were constructed for each of the neuronal processes. In these maps, stationary mitochondria appear as vertical lines and moving mitochondria generate tilted lines. Proportions of moving and stationary mitochondria were extracted from the maps by marking and analyzing the properties of each of the mitochondrial trajectories.

[2] = test system: iCas9-iPSC DIV80 neuronal progeny; assay type: cell-based; conditions: human
Procedure: Next, the iCas9-iPSC derived DIV79 neurons were treated with PR20 peptides to mimic DPR toxicity (Cheng et al 2019 Neuron 72:1-14; Kramer et al 2018 Nat Genet 50:603-612).
To validate results from the screen, iCas9-NPCs were individually transduced with sgRNAs directed against the top 3 candidate genes, CRKL, SNRK and NEK6, that enhanced survival in the interference screen. A 50-60% reduction in protein levels of CRKL, SNRK and NEK6 was observed after doxycycline treatment (FIG. 5). […] A more pronounced effect could be observed using sgRNAs against NEK6 and SNRK.
Resazurin (R7017, Sigma) was added to the cells in neuron maintenance medium (NMM) at a concentration of 1 μg/ml. Cells were incubated for 1 h in 37° C. with 5% CO2. […] was evaluated using 540 nm excitation and 590 nm emission settings.

[3] = co-injection of poly(PR) mRNA with 0.5 mM morpholino, 30 hpf

Q: Which results are given for “5′-ATGTTAGAAAGTGTACCTCGATGCA-3′ (all phosphorodiamidate morpholino (PMO)) [Nek6 morpholino]”?
A: poly(PR)-induced axonal phenotype (poly(PR) zebrafish model; co-injection of poly(PR) mRNA with 0.5 mM morpholino in oocytes): significantly prevented; aberrant axonal branching (poly(PR) zebrafish model; [3]): less aberrantly branched axons; axonal length (poly(PR) zebrafish model; [3]): partial normalization

Q: Which results are given for `COc1cc(N2CCN(C)CC2)ccc1Nc1ncc2c(n1)n1c(cc3ccccc31)c(=O)n2C` [Compound I-3]?
A: axonal transport defects observed upon PR-treatment [1]: statistically significantly rescues; number of moving mitochondria [1]: statistically significantly improved; ratio of moving mitochondria to total amount of mitochondria [1]: statistically significantly improved

Q: Which results are given for `CCOc1cc(N2CCC(O)CC2)ccc1Nc1ncc2c(n1)n1c(cc3ccccc31)c(=O)n2C` [Compound I-18]?
A: axonal transport defects observed upon PR-treatment [1]: statistically significantly rescues; number of moving mitochondria [1]: statistically significantly improved; ratio of moving mitochondria to total amount of mitochondria [1]: statistically significantly improved; number of total mitochondria ([1]; 300 nm I-18, vs PR-treatment alone): statistically significantly increased

Q: For `CC1=C(C#N)C(O)=NC(=O)/C1=C\c1ccc(-c2ccccc2)o1` [ZINC05007751], which “axonal transport defects induced by PR20” value ([1]; 1.75 μM to 14 μM inhibitor at day 1 and day 3, PR20 1.5 μM at day 3, measured at day 4) is on record?
A: overruled the axonal transport defects

Q: How did the axonal transport ([1]; 1.5 μM PR20, normal donor iPSC-DIV79 cortical neurons) turn out when “PRPRPRPRPRPRPRPRPRPRPRPRPRPRPRPRPRPRPRPR [PR20]” was run?
A: significantly decreased

Q: What about the “neuronal progeny died (dose-response, cell viability)” value [2] of the same compound?
A: 70-80%
